Common to all, as to format: in vivo, Kunming white mice
Experiment [1] has as its system normal mice. Briefly: Natural extract vs solid-phase synthetic polypeptide, normal mice, subcutaneous injection (Example 7). The settings on record: 1 mg/mL at 0.05 ml/10 g, single subcutaneous injection on the back; for Blood glucose level prior to administration: baseline.
The subject of experiment [2] is normal mice. The experiment in a line: Hypoglycemic effect of the polypeptide on normal mice after tail vein injection (Example 3). Particulars: for Blood glucose level at 15 min after administration / Blood glucose level at 30 min after administration / Blood glucose level prior to administration: single tail vein injection; for Blood glucose level prior to administration: baseline.

The subject of experiment [3] is normal mice. Briefly: Polypeptide vs insulin on normal mice after tail vein injection (Example 10).
The subject of experiment [4] is normal mice. The experiment in a line: Hypoglycemic effect on normal mice after administration by gavage, with or without glucose (Example 11). Particulars: for Blood glucose level prior to administration: baseline.
Experiment [5] relates to normal mice. Briefly: Hypoglycemic effect of polypeptides on normal mice after tail vein injection (Example 4). The settings on record: 1 mg/mL at 0.05 ml/10 g, single tail vein injection.
Where [6] appears, read: Group A high-dose, 1 mg/mL at 0.10 ml/10 g.
The mark [7] stands for this setting: Group B medium-dose, 1 mg/mL at 0.05 ml/10 g.
Setting [8] is: Group C low-dose, 1 mg/mL at 0.025 ml/10 g.
[9] abbreviates: single tail vein injection, polypeptide 2 mg/mL at 0.05 ml/10 g (10 mg/kg), insulin 0.5 U/mL (2.5 U/kg).
Where [10] appears, read: Group B, 1 mg/mL polypeptide in saline at 0.10 ml/10 g.
Setting [11] is: Group C polypeptide+glucose, 1 mg/mL polypeptide in 10% glucose solution at 0.10 ml/10 g.

Bridge positions count the residues as written; N and C are the ends. Square brackets hold non-standard residues; d marks the D form. Ends that are not written are not given here. Met(O) = CS(=O)CC[C@H](N)C(=O)O

As for “ASCNGVCSPFEMPPCGTSACRCIPVGLVVGYCRNPSG [Polypeptide B] (disulfide 15-32, 3-20, 7-22; listed as Pisum sativum)”, in experiment [1], the “Blood glucose level at 15 min after administration” value (from here on “Blood glucose level at 15 min”) was 5.5 ± 0.3 mmol/L, the “Blood glucose level at 30 min after administration” value (from here on “Blood glucose level at 30 min”) is 4.6 ± 0.2 mmol/L, the “Blood glucose level at 45 min after administration” value (from here on “Blood glucose level at 45 min”) is on record as 3.3 ± 0.2 mmol/L and the “Blood glucose level at 60 min after administration” value (from here on “Blood glucose level at 60 min”) came out at 2.4 ± 0.1 mmol/L. In experiment [1], the “Blood glucose level prior to administration” value (from here on “Blood glucose level prior”) stood at 7.2 ± 0.6 mmol/L.
For “ASCNGVCSPFEMPPCGTSACRCIPVGLVVGYCRNPSG [Polypeptide A] (disulfide 15-32, 3-20, 7-22; listed as Pisum sativum)” the same measures were 5.2 ± 0.4 mmol/L, 4.4 ± 0.5 mmol/L, 3.6 ± 0.3 mmol/L, 2.2 ± 0.2 mmol/L and 6.8 ± 0.5 mmol/L.
As to “ASCNGVCSPFEMPPCGTSACRCIPVGLFIGYCRNPSG (disulfide 15-32, 3-20, 7-22; listed as Pisum sativum) [SEQ ID No. 7]”, the “Blood glucose level at 15 min” value in experiment [2] (setting [6]) was determined as 3.3 ± 0.3 mmol/L; in experiment [2] (setting [7]), 4.3 ± 0.4 mmol/L; in experiment [2] (setting [8]), 5.7 ± 0.3 mmol/L. Besides, the entries for the “Blood glucose level at 30 min” value in experiment [2] (setting [6]), in experiment [2] (setting [7]) and in experiment [2] (setting [8]) were 2.1 ± 0.3 mmol/L, 3.3 ± 0.3 mmol/L and 4.3 ± 0.3 mmol/L, respectively. Further, the “Blood glucose level prior” value was 7.1 ± 0.5 mmol/L in experiment [2] (setting [6]), 7.9 ± 0.6 mmol/L in experiment [2] (setting [7]) and 6.9 ± 0.5 mmol/L in experiment [2] (setting [8]). Also, in experiment [2] (normal mice, intravenous injection), the “hypoglycemic activity (conclusion)” value is reported as “explicit hypoglycemic activity”.
Consider “ISCNGVCSPFDIPPCGSPLCRCIPAGLVIGNCRNPYG (disulfide 15-32, 3-20, 7-22; listed as Pisum sativum) [SEQ ID No. 11]”, for which the “hypoglycemic effect compared with insulin” value in experiment [3] (polypeptide 10 mg/kg vs insulin 2.5 U/kg, tail vein injection) was “the same hypoglycemic effect on normal mice as insulin”. Also, in experiment [3] (setting [9]), the “Blood glucose level at 15 min” value turned out to be 4.1 ± 0.3 mmol/L, the “Blood glucose level at 30 min” value is on record as 2.8 ± 0.2 mmol/L, the “Blood glucose level at 45 min” value is 2.2 ± 0.1 mmol/L and the “Blood glucose level at 60 min” value was found to be 2.0 ± 0.1 mmol/L. Also, the “Blood glucose level prior” value in experiment [3] (single tail vein injection, polypeptide 2 mg/mL at 0.05 ml/10 g (10 mg/kg), insulin 0.5 U/mL (2.5 U/kg), baseline) came to 8.2 ± 0.5 mmol/L.
With “ASCNGVCSPFDIPPCGSPLCRCIPVGLVIGKCRNPYG (disulfide 15-32, 3-20, 7-22; listed as Pisum sativum) [SEQ ID No. 10]”, in experiment [4] (setting [10]), the “Blood glucose level at 15 min” value is 6.9 ± 0.3 mmol/L, the “Blood glucose level at 30 min” value was determined as 6.4 ± 0.2 mmol/L, the “Blood glucose level at 45 min” value is 6.1 ± 0.3 mmol/L and the “Blood glucose level at 60 min” value was 6.1 ± 0.2 mmol/L. Also, in experiment [4] (setting [10]), the “Blood glucose level prior” value was 6.7 ± 0.6 mmol/L. In addition, in experiment [4] (setting [11]), the “Blood glucose level at 15 min” value was found to be 7.1 ± 0.3 mmol/L, the “Blood glucose level at 30 min” value was determined as 6.9 ± 0.2 mmol/L, the “Blood glucose level at 45 min” value is listed as 6.6 ± 0.3 mmol/L and the “Blood glucose level at 60 min” value amounted to 6.2 ± 0.2 mmol/L. The “Blood glucose level prior” value in experiment [4] (setting [11]) is 6.8 ± 0.4 mmol/L.
On to “ASCNGVCSPFEMoxPPCGTSACRCIPVGLVIGYCRNPSG (ASCNGVCSPFE[Met(O)]PPCGTSACRCIPVGLVIGYCRNPSG; disulfide 15-32, 3-20, 7-22; listed as Pisum sativum) [SEQ ID No. 4]”, for which, in experiment [5], the “Blood glucose level at 15 min” value is recorded as 6.9 ± 0.4 mmol/L and the “Blood glucose level at 30 min” value is listed as 4.6 ± 0.3 mmol/L. In addition, the “Blood glucose level prior” value in experiment [5] (baseline) is given as 7.5 ± 0.5 mmol/L.

Source of the values: US20200038478A1, “POLYPEPTIDE AND COMPOSITION THEREOF FOR TREATING DISEASES OF METABOLIC SYSTEM” (WUHAN GRECTECH CO., LTD., priority 2017, published 2020).
